Test results from patent publication US9216973B2, “Insecticidal compounds” (Syngenta Participations AG, priority 2008, dated 2015).

Legend:
[1] = test system: Tetranychus urticae (Two-spotted spider mite); test: Tetranychus urticae bean leaf disc spray test; format: in vivo; conditions: for pest or weed control at 200 ppm: foliar, 192 h, 200 ppm spray on bean leaf discs, mite populations of mixed ages, egg, larval and adult mortality 8 days later, read-out: control of Tetranychus urticae; for effect on mortality, feeding behavior, or growth regulation: same protocol, 200 ppm
Protocol: (§1) This Example illustrates the insecticidal and acaricidal properties of compounds of formula (I). The tests were performed as follows:
(§2) Cotton leaf discs were placed on agar in a 24-well microtiter plate and sprayed with test solutions at an application rate of 200 ppm. After drying, the leaf discs were infested with 5 L1 larvae. The samples were checked for mortality, feeding behavior, and growth regulation 3 days after treatment (DAT). The following compound gave at least 80% control of Spodoptera littoralis: A1, A2, A5, A6, A7, A8, A10, A11, A12, A13, A14, A15, A16, A17, A18, A19, A21, A22, A23, A24, A25, A30, A31, A32, A33, A34, A35, A39, A40, A41 A42, A43, A44, A45, A46, A47, A48, A49, A50, A51, A53, A54, A55, A59, A60, A61, A62. Heliothis virescens (Tobacco budworm): Eggs (0-24 h old) were placed in 24-well microtiter plate on artificial diet and treated with test solutions at an application rate of 200 ppm (concentration in well 18 ppm) by pipetting. After an incubation period of 4 days, samples were checked for egg mortality, larval mortality, and growth regulation. The following compound gave at least 80% control of Heliothis virescens: A1, A2, A3, A4, A5, A6, A7, A8, A10, A11, A12, A13, A14, A15, A16, A18, A19, A21, A22, A24, A25, A30, A31, A32, A33, A34, A35, A37, A38, A39, A40, A42, A43, A44, A45, A46, A47, A48, A49, A50, A51, A55, AA57, A58, A59, A60, A61, A62. Plutella xylostella (Diamond back moth): 24-well microtiter plate (MTP) with artificial diet was treated with test solutions at an application rate of 200 ppm (concentration in well 18 ppm) by pipetting. After drying, the MTP's were infested with L2 larvae (7-12 per well). After an incubation period of 6 days, samples were checked for larval mortality and growth regulation. The following compound gave at least 80% control of Plutella xylostella: A1, A2, A5, A6, A7, A8, A9, A10, A11, A12, A13, A14, A15, A16, A17, A18, A19, A20, A21, A22, A24, A25, A30, A31, A32, A33, A34, A35, A37, A38, A39, A40, A42, A43, A44, A45, A46, A47, A48, A49, A50, A51, A52, A53, A54, A55, A57, A58, A59, A60, A61, A62, B3. Diabrotica balteata (Corn root worm): A 24-well microtiter plate (MTP) with artificial diet was treated with test solutions at an application rate of 200 ppm (concentration in well 18 ppm) by pipetting. After drying, the MTP's were infested with L2 larvae (6-10 per well). After an incubation period of 5 days, samples were checked for larval mortality and growth regulation. The following compound gave at least 80% control of Diabrotica balteata: A1, A2, A5, A6, A7, A10, A11, A12, A13, A14, A15, A16, A17, A18, A19, A21, A22, A24, A25, A30, A31, A32, A33, A34, A35, A38, A39, A40, A42, A43, A44, A45, A46, A47, A48, A49, A50, A59, A60, A61, A62. Thrips tabaci (Onion thrips): Sunflower leaf discs were placed on agar in a 24-well microtiter plate and sprayed with test solutions at an application rate of 200 ppm. After drying, the leaf discs were infested with an […] population of mixed ages. After an incubation period of 7 days, samples were checked for mortality. The following compounds gave at least 80% control of Thrips tabaci: A1, A2, A5, A6, A7, A8, A10, A12, A13, A14, A15, A16, A17, A18, A19, A21, A24, A25, A30, A31, A32, A33, A34, A35, A39, A42, A43, A44, A45, A46, A47, A48, A49, A50, A51, A53, A54, A57, A58, A59, A60, A61, A62. Tetranychus urticae (Two-spotted spider mite): Bean leaf discs on agar in 24-well microtiter plates were sprayed with test solutions at an application rate of 200 ppm. After drying, the leaf discs are infested with mite populations of mixed ages. 8 days later, discs are checked for egg mortality, larval mortality, and adult mortality. The following compound gave at least 80% control of Tetranychus urticae: A1, A2, A4, A5, A6, A7, A8, A10, A11, A12, A13, A14, A15, A16, A17, A18, A19, A20, A21, A22, A30, A31, A32, A33, A34, A35, A39, A40, A41, A42, A43, A44, A45, A46, A47, A48, A49, A50, A51, A53, A54, A55, A57, A59, A60, A61, A62.

[2] = test system: Thrips tabaci (Onion thrips); test: Thrips tabaci sunflower leaf disc spray test; format: in vivo; conditions: for pest or weed control at 200 ppm: foliar, 168 h, 200 ppm spray on sunflower leaf discs, population of mixed ages, mortality after 7 days; for effect on mortality, feeding behavior, or growth regulation: same protocol, 200 ppm
Protocol: as §1, §2

Row | Compound | pest or weed control at 200 ppm [1] [%] | pest or weed control at 200 ppm [2] [%] | effect on mortality, feeding behavior, or growth regulation [1] | effect on mortality, feeding behavior, or growth regulation [2]
1 | CC1(NC(=O)c2ccc(C3=NOC(c4cc(Cl)cc(Cl)c4)(C(F)(F)F)C3)c3ccccc23)CSC1 (centres unmarked) [A1] | ≥ 80 | ≥ 80 |  | 
2 | O=C(NC1CSC1)c1ccc(C2=NOC(c3cc(Cl)cc(Cl)c3)(C(F)(F)F)C2)c2ccccc12 (centres unmarked) [A2] | ≥ 80 | ≥ 80 |  | 
3 | Cc1cc(C2=NOC(c3cc(Cl)cc(Cl)c3)(C(F)(F)F)C2Br)ccc1C(=O)NC1(C)CSC1 (centres unmarked) [A5] | ≥ 80 | ≥ 80 |  | 
4 | Cc1cc(C2=NOC(c3cc(Cl)cc(Cl)c3)(C(F)(F)F)C2Br)ccc1C(=O)NC1CSC1 (centres unmarked) [A6] | ≥ 80 | ≥ 80 |  | 
5 | Cc1cc(C2=NOC(c3cc(Cl)cc(Cl)c3)(C(F)(F)F)C2Br)ccc1C(=O)NC1C[S+]([O-])C1 (centres unmarked) [A7] | ≥ 80 | ≥ 80 |  | 
6 | Cc1cc(N2CC(c3cc(Cl)cc(Cl)c3)(C(F)(F)F)OC2=O)ccc1C(=O)NC1C[S+]([O-])C1 (centres unmarked) [A10] | ≥ 80 | ≥ 80 |  | 
7 | Cc1cc(N2CC(c3cc(Cl)cc(Cl)c3)(C(F)(F)F)OC2=O)ccc1C(=O)NC1CSC1 (centres unmarked) [A11] | ≥ 80 |  |  | 
8 | Cc1cc(C2=NN(C)C(c3cc(Cl)cc(Cl)c3)(C(F)(F)F)C2)ccc1C(=O)NC1(C)CSC1 (centres unmarked) [A12] | ≥ 80 | ≥ 80 |  | 
9 | Cc1cc(C2=NN(C)C(c3cc(Cl)cc(Cl)c3)(C(F)(F)F)C2)ccc1C(=O)NC1C[S+]([O-])C1 (centres unmarked) [A13] | ≥ 80 | ≥ 80 |  | 
10 | Cc1cc(C2=NN(C)C(c3cc(Cl)cc(Cl)c3)(C(F)(F)F)C2)ccc1C(=O)NC1CSC1 (centres unmarked) [A14] | ≥ 80 | ≥ 80 |  | 
11 | O=C(NC1CS(=O)(=O)C1)c1ccc(C2=NOC(c3cc(Cl)cc(Cl)c3)(C(F)(F)F)C2)c2ccccc12 (centres unmarked) [A15] | ≥ 80 | ≥ 80 |  | 
12 | O=C(NC1C[S+]([O-])C1)c1ccc(C2=NOC(c3cc(Cl)cc(Cl)c3)(C(F)(F)F)C2)c2ccccc12 (centres unmarked) [A16] | ≥ 80 | ≥ 80 |  | 
13 | Cc1cc(C2=NOC(c3cc(Cl)cc(Cl)c3)(C(F)(F)F)O2)ccc1C(=O)NC1CSC1 (centres unmarked) [A17] | ≥ 80 | ≥ 80 |  | 
14 | Cc1cc(C2CC(c3cc(Cl)cc(Cl)c3)(C(F)(F)F)ON2C)ccc1C(=O)NC1C[S+]([O-])C1 (centres unmarked) [A18] | ≥ 80 | ≥ 80 |  | 
15 | Cc1cc(C2CC(c3cc(Cl)cc(Cl)c3)(C(F)(F)F)ON2C)ccc1C(=O)NC1CS(=O)(=O)C1 (centres unmarked) [A19] | ≥ 80 | ≥ 80 |  | 
16 | Cc1cc(C2CC(c3cc(Cl)cc(Cl)c3)(C(F)(F)F)ON2C)ccc1C(=O)NC1CSC1 (centres unmarked) [A21] | ≥ 80 | ≥ 80 |  | 
17 | O=C(NC1CS(=O)(=O)C1)c1ccc(C2=NOC(c3cc(Cl)cc(Cl)c3)(C(F)(F)F)C2)c2nsnc12 (centres unmarked) [A22] | ≥ 80 |  |  | 

Row | Compound | pest or weed control at 200 ppm [1] [%] | pest or weed control at 200 ppm [2] [%] | effect on mortality, feeding behavior, or growth regulation [1] | effect on mortality, feeding behavior, or growth regulation [2]
18 | Cc1nc2c(C3=NOC(c4cc(Cl)cc(Cl)c4)(C(F)(F)F)C3)ccc(C(=O)NC3CS(=O)(=O)C3)c2o1 (centres unmarked) [A26] |  |  | little or no effect | little or no effect
19 | Cc1nc2c(C3=NOC(c4cc(Cl)cc(Cl)c4)(C(F)(F)F)C3)ccc(C(=O)NC3(C)CSC3)c2o1 (centres unmarked) [A27] |  |  | little or no effect | little or no effect
20 | Cc1nc2c(C3=NOC(c4cc(Cl)cc(Cl)c4)(C(F)(F)F)C3)ccc(C(=O)NC3C[S+]([O-])C3)c2o1 (centres unmarked) [A28] |  |  | little or no effect | little or no effect
21 | Cc1nc2c(C3=NOC(c4cc(Cl)cc(Cl)c4)(C(F)(F)F)C3)ccc(C(=O)NC3CSC3)c2o1 (centres unmarked) [A29] |  |  | little or no effect | little or no effect
22 | Cc1cc(C2=NOC(c3cc(Cl)cc(Cl)c3)(C(F)(F)F)C2Cl)ccc1C(=O)NC1CS(=O)(=O)C1 (centres unmarked) [A32] | ≥ 80 | ≥ 80 |  | 
23 | Cc1cc(C2=NOC(c3cc(Cl)cc(Cl)c3)(C(F)(F)F)C2Cl)ccc1C(=O)NC1(C)CSC1 (centres unmarked) [A33] | ≥ 80 | ≥ 80 |  | 
24 | Cc1cc(C2=NOC(c3cc(Cl)cc(Cl)c3)(C(F)(F)F)C2Cl)ccc1C(=O)NC1C[S+]([O-])C1 (centres unmarked) [A34] | ≥ 80 | ≥ 80 |  | 
25 | CC1(NC(=O)c2cccc3c(C4=NOC(c5cc(Cl)cc(Cl)c5)(C(F)(F)F)C4)cccc23)CSC1 (centres unmarked) [A36] |  |  | little or no effect | little or no effect
26 | O=C(NC1CS(=O)(=O)C1)c1ccc(C2=NOC(c3cc(Cl)cc(Cl)c3)(C(F)(F)F)C2Br)c2ccccc12 (centres unmarked) [A42] | ≥ 80 | ≥ 80 |  | 
27 | CC1(NC(=O)c2ccc(C3=NOC(c4cc(Cl)cc(Cl)c4)(C(F)(F)F)C3Br)c3ccccc23)CSC1 (centres unmarked) [A43] | ≥ 80 | ≥ 80 |  | 
28 | O=C(NC1C[S+]([O-])C1)c1ccc(C2=NOC(c3cc(Cl)cc(Cl)c3)(C(F)(F)F)C2Br)c2ccccc12 (centres unmarked) [A44] | ≥ 80 | ≥ 80 |  | 
29 | Cc1cc(C2=NCC(c3cc(Cl)cc(Cl)c3)(C(F)(F)F)C2)ccc1C(=O)NC1CS(=O)(=O)C1 (centres unmarked) [A46] | ≥ 80 | ≥ 80 |  | 
30 | Cc1cc(C2=NCC(c3cc(Cl)cc(Cl)c3)(C(F)(F)F)C2)ccc1C(=O)NC1(C)CSC1 (centres unmarked) [A47] | ≥ 80 | ≥ 80 |  | 
31 | Cc1cc(C2=NCC(c3cc(Cl)cc(Cl)c3)(C(F)(F)F)C2)ccc1C(=O)NC1C[S+]([O-])C1 (centres unmarked) [A48] | ≥ 80 | ≥ 80 |  | 
32 | Cc1cc(C2=NCC(c3cc(Cl)cc(Cl)c3)(C(F)(F)F)C2)ccc1C(=O)NC1CSC1 (centres unmarked) [A49] | ≥ 80 | ≥ 80 |  | 
33 | Cc1cc(C2=NOC(c3cc(Cl)cc(Cl)c3)(C(F)(F)F)C2O)ccc1C(=O)NC1CS(=O)(=O)C1 (centres unmarked) [A51] | ≥ 80 | ≥ 80 |  | 
34 | Cc1cc(C2=NOC(c3cc(Cl)cc(Cl)c3)(C(F)(F)F)/C2=N/O)ccc1C(=O)NC1CS(=O)(=O)C1 (centres unmarked) [A55] | ≥ 80 |  |  | 
